Laboratory results published in patent publication US20070249607A1, “NK-1 AND SEROTONIN TRANSPORTER INHIBITORS” (Bristol-Myers Squibb Company, priority 2006, published 2007).

Tests used:
[1] = molecular target: T1, neurokinin-1 (NK-1) receptor (Homo sapiens, UniProt P25103); experiment: NK-1 Binding assay ([125I] Substance P competition, U373 cell membranes); details: Table 1; U373 membranes, [125I] Substance P displacement; read-out: NK-1 IC50
T1 construct: a human glioblastoma-astrocytoma cell line that endogenously expresses the neurokinin-1 (NK-1) receptor; endogenous in cells; host or cells: U373 human glioblastoma-astrocytoma cells (membranes)
T1 sequence (P25103 whole entry): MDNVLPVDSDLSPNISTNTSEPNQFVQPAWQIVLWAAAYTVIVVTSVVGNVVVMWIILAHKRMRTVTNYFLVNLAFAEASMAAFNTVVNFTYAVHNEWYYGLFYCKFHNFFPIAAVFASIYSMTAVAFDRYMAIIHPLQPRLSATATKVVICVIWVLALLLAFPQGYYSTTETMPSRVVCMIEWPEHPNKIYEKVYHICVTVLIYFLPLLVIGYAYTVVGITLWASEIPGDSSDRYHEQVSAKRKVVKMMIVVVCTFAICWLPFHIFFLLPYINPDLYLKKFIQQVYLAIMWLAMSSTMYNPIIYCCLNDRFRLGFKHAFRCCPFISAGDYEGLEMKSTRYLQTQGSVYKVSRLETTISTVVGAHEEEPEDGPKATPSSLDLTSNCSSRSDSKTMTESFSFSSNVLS
Description: NK-1 Binding assay. U373 cells, a human glioblastoma-astrocytoma cell line that endogenously expresses the neurokinin-1 (NK-1) receptor, were grown in a monolayer culture at 37° C. in 5% CO2 and fed with Minimum Essential Medium (MEM) supplemented with 10% fetal bovine serum. Membranes were prepared as follows: Cells were washed twice with ice-cold phosphate-buffered saline (pH 7.4) and then incubated for 5-10 minutes with ice-cold 10 mM Tris buffer (pH 7.4) containing 5 mM EDTA. Cells were removed from plates, homogenized, and centrifuged at 32,000×g for 20 minutes. The resulting supernatant was discarded, and the pellet resuspended by homogenization in 50 mM Tris buffer (pH 7.4) containing 1 mM EDTA and centrifuged at 32,000×g for 20 minutes. The resulting supernatant was discarded, and the pellet resuspended by homogenization in NK-1 binding assay buffer (50 mM Tris-HCL (pH 7.4), 3 mM MnCl2, 200 μg/ml BSA, 5 μg/ml chymostatin, 40 μg/ml bacitracin and 4 μg/ml leupeptin).
On the day of an experiment the membrane preparation was thawed, homogenized and diluted with NK-1 binding assay buffer to the appropriate concentration. […] Substance P, at a concentration of […], and concentrations of drugs ranging from 10000 to 0.01 nM. Samples were incubated for 30 min at 20° C. then filtered through GF/B glass fiber filters (pretreated with 1% polyethyleneimine and 0.3% Triton X-100) using a Brandel cell harvester. The filters were then washed with 10 ml ice cold 50 mM Tris-HCL (pH 7.4) containing 3 mM MgCl2. […] The amount of radioligand bound in the presence and absence of competitor was analyzed by plotting (-)log drug concentration versus the amount of radioligand specifically bound. The midpoint of the displacement curve (IC50, nM), signifies the potency.

[2] = molecular target: T2, human serotonin transporters (Homo sapiens, UniProt P31645); experiment: Serotonin transporter binding assay ([3H]-citalopram competition, HEK-hSERT cell membranes); details: Table 1; HEK-hSERT membranes, [3H]-citalopram displacement; read-out: SERT IC50
T2 construct: expressed in transfected cells
T2 sequence (P31645 whole entry): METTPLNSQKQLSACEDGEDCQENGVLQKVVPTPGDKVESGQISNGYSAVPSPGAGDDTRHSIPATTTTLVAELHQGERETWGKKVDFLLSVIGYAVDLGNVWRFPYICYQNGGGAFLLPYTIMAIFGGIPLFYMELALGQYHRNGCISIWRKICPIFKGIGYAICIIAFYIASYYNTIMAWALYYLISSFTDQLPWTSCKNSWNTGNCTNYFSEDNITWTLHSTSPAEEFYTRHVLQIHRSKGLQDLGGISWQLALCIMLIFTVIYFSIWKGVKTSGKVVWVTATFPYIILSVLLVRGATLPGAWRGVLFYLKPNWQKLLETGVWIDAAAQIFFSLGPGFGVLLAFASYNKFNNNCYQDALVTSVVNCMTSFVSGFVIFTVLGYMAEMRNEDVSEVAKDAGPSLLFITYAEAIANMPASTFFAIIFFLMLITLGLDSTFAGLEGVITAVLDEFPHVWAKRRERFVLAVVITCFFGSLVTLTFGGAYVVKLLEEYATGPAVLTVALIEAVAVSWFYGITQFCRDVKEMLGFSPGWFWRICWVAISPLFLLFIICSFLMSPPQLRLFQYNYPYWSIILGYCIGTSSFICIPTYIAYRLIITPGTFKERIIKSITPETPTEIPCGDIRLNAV
Description: Serotonin transporter binding assay. HEK-293 cells that stably express human serotonin transporters (HEK-hSERT cells) were grown at 37° C. in 5% CO2 as a monolayer in medium consisting of EMEM supplemented with 10% fetal bovine serum and G418 sulfate (500 μg/ml). To prepare membranes for radioligand binding experiments, cells were rinsed twice with phosphate-buffered saline (138 mM NaCl, 4.1 mM KCl, 5.1 mM Na2PO4, 1.5 mM KH2PO4, 11.1 mM glucose, pH 7.4). Cells were transferred from plates to polypropylene tubes (16×100 mm), centrifuged at 1,200×g for 5 min and were frozen at −80° C. until assay. Following centrifugation, pellets were resuspended by homogenization in buffer consisting of 50 mM Tris (pH 7.7 at 25° C.), 120 mM NaCl and 5 mM KCl and then centrifuged at 32,000×g for 10 min. Following centrifugation, supernatants were discarded and pellets were resuspended in buffer consisting of 50 mM Tris (pH 7.4 at 25° C.), 150 mM NaCl and 5 mM KCl. Membrane homogenates (200 μl/plate) were incubated with 1 nM [^3H]-citalopram (specific activity=85 Ci/mmol) and increasing concentrations of test compounds for 1 hr at 25° C. in a total volume of 250 μl. The assay buffer consisted of 50 mM Tris (pH 7.4 at 25° C.), 120 mM NaCl and 5 mM KCl (pH 7.4 with conc. HCl). Plates were incubated for 1 hr at 25° C., then filtered through 0.5% PEI treated Whatman GF/B filters using a Brandel cell harvester. Filters were washed three times with 3 ml of ice-cold tris wash buffer. Non-specific binding was defined with 10 μM fluoxetine. Amount of radioligand bound in the presence and absence of competitor was analyzed by plotting (-)log drug concentration versus the amount of radioligand specifically bound. The midpoint of the displacement curve (IC50, nM), signifies the potency. Ki values can be calculated using the method of Cheng and Prusoff (Cheng and Prusoff, BiochemicalPharmacology, Vol 22, pp. 3099-3108, Pergamon Press (1973)).

| Structure (SMILES) | IC50 [1] | IC50 [2] |
| --- | --- | --- |
| FC(F)(F)c1cc(COCC2(c3ccccc3)CCNCC2)cc(-c2ccc(N3CCOCC3)nc2)c1 | > 300 nM | 0.01 to 100 nM |
| CN1CCN(c2cc(-c3cc(COCC4(c5ccccc5)CCNCC4)cc(C(F)(F)F)c3)ccn2)CC1 | > 300 nM | 100 to 300 nM |
| COc1cc(-c2cc(COCC3(c4ccccc4)CCNCC3)cc(C(F)(F)F)c2)c(F)cn1 | 100 to 300 nM | 0.01 to 100 nM |
| COc1cc(-c2cc(COCC3(c4ccccc4)CCNCC3)cc(C(F)(F)F)c2)c(Cl)cn1 | > 300 nM | 0.01 to 100 nM |
| FC(F)(F)c1cc(COCC2(c3ccccc3)CCNCC2)cc(-c2ccccc2C(F)(F)F)c1 | > 300 nM | 100 to 300 nM |
| FC(F)(F)c1cc(COCC2(c3ccccc3)CCNCC2)cc(-c2cnc3ccccc3c2)c1 | 100 to 300 nM | 0.01 to 100 nM |
| COc1ncc(-c2cc(COCC3(c4ccccc4)CCNCC3)cc(C(F)(F)F)c2)c(OC)n1 | 100 to 300 nM | 0.01 to 100 nM |
| FC(F)(F)c1cc(COCC2(c3ccccc3)CCNCC2)cc(-c2ccc3cnccc3c2)c1 | 100 to 300 nM | 0.01 to 100 nM |
| Cc1ccncc1-c1cc(COCC2(c3ccccc3)CCNCC2)cc(C(F)(F)F)c1 | > 300 nM | 0.01 to 100 nM |
| FC(F)(F)c1cc(COCC2(c3ccccc3)CCNCC2)cc(-c2cccc3ccccc23)c1 | > 300 nM | 100 to 300 nM |
| FC(F)(F)c1cc(COCC2(c3ccccc3)CCNCC2)cc(-c2ccc(Cl)cc2)c1 | 0.01 to 100 nM | 0.01 to 100 nM |
| Cc1ccc(-c2cc(COCC3(c4ccccc4)CCNCC3)cc(C(F)(F)F)c2)cc1 | 0.01 to 100 nM | 0.01 to 100 nM |
| COc1ccc(-c2cc(COCC3(c4ccccc4)CCNCC3)cc(C(F)(F)F)c2)cc1 | 0.01 to 100 nM | 0.01 to 100 nM |

Next, values leading:

| IC50 [1] | IC50 [2] | Structure (SMILES) |
| --- | --- | --- |
| 0.01 to 100 nM | 0.01 to 100 nM | COc1ncc(-c2cc(COCC3(c4ccccc4)CCNCC3)cc(C(F)(F)F)c2)cn1 |
| 0.01 to 100 nM | 0.01 to 100 nM | N#Cc1ccc(-c2cc(COCC3(c4ccccc4)CCNCC3)cc(C(F)(F)F)c2)cn1 |
| 0.01 to 100 nM | 0.01 to 100 nM | Fc1cc(-c2cc(COCC3(c4ccccc4)CCNCC3)cc(C(F)(F)F)c2)c(Cl)cn1 |
| 0.01 to 100 nM | 0.01 to 100 nM | COc1cc(-c2cc(COCC3(c4ccccc4)CCNCC3)cc(C(F)(F)F)c2)ccn1 |
| 0.01 to 100 nM | 0.01 to 100 nM | Nc1ccc(-c2cc(COCC3(c4ccccc4)CCNCC3)cc(C(F)(F)F)c2)cn1 |
| 0.01 to 100 nM | 0.01 to 100 nM | FC(F)(F)c1cc(COCC2(c3ccccc3)CCNCC2)cc(-c2ccc(Cl)nc2)c1 |
| 0.01 to 100 nM | 0.01 to 100 nM | FC(F)(F)c1cc(COCC2(c3ccccc3)CCNCC2)cc(-c2cccnc2Cl)c1 |
| 0.01 to 100 nM | 0.01 to 100 nM | Fc1ncccc1-c1cc(COCC2(c3ccccc3)CCNCC2)cc(C(F)(F)F)c1 |
| 0.01 to 100 nM | 0.01 to 100 nM | FC(F)(F)c1cc(COCC2(c3ccccc3)CCNCC2)cc(-c2ccc(Cl)nc2Cl)c1 |
| 0.01 to 100 nM | 0.01 to 100 nM | O=[N+]([O-])c1cccc(-c2cc(COCC3(c4ccccc4)CCNCC3)cc(C(F)(F)F)c2)c1 |
| 0.01 to 100 nM | 0.01 to 100 nM | Nc1cccc(-c2cc(COCC3(c4ccccc4)CCNCC3)cc(C(F)(F)F)c2)c1 |
| 0.01 to 100 nM | 0.01 to 100 nM | FC(F)(F)c1cc(COCC2(c3ccccc3)CCNCC2)cc(-c2ccc(Cl)cc2Cl)c1 |
| 0.01 to 100 nM | 0.01 to 100 nM | Fc1ccc(-c2cc(COCC3(c4ccccc4)CCNCC3)cc(C(F)(F)F)c2)cc1 |
